Reference: US12102651B1, “Solvent-based method for making nanocomposite pharmaceutical material” (Imam Abdulrahman Bin Faisal University, priority 2022, dated 2024)

Columns and labels:
[1] = system: Staphylococcus aureus ATCC25923; assay: Broth dilution MIC/MBC against Staphylococcus aureus; type: cell-based; conditions: S. aureus, 24 h, 37° C.
Experimental: (§1) Bacterial strains of Pseudomonas aeruginosa ATCC27853 (gram-negative) and Staphylococcus aureus ATCC25923 (gram-positive) were subjected to antibacterial studies. The bacteria were sub-cultured and maintained on Mueller Hinton Agar (MHA). A stock solution of the nanomaterial (8 mg/ml) was sonicated for 10 minutes in Mueller Hinton Broth (MHB) to obtain a homogenized solution for an antibacterial assay. Inoculum was prepared by adjusting the cell number to 1.5×10^8 colony forming unit per milliliter (CFU per ml) by using freshly grown strains, grown overnight at 37° C. […] About 100 μL of adjusted inoculum was inoculated into each tube and were further incubated for 24 h (at 37° C.) with agitation of 120 rotations per minute (rpm). A control tube of bacteria, also referred as control, had no nanomaterial. 10 μL extracted from the tubes were put on prepared MHA plates and further incubated at the same conditions. After the completion of incubation duration, the MHA plates were recorded for MIC and MBC values. MIC was taken as the lowest concentration of nanomaterial that inhibited 90% of the bacterial growth. However, MBC was recorded as the lowest concentration that killed the bacterial cells or had CFU less than three. […]

[2] = system: Pseudomonas aeruginosa ATCC27853; assay: Broth dilution MIC/MBC against Pseudomonas aeruginosa; type: cell-based; conditions: P. aeruginosa, 24 h, 37° C.
Experimental: as §1

[3] = system: HCT-116 cells; assay: Apoptotic DAPI staining assay on HCT-116 cells; type: cell-based, human; conditions: HCT-116, 25 μg/ml, 48-hour treatment
Source text: DAPI is a fluorescent dye used to distinguish between live and dead cells. In live cells, the dye pass through a membrane less effectively. Therefore, the DAPI staining assay is an effective marker to identify the cell viability based on the cell structural changes. The morphology changes of cancer nuclear structure due to treatments of MSS, 1 wt. % Ag/MSS, 2 wt. % Ag/MSS, 4 wt. % Ag/MSS, 6 wt. % Ag/MSS, Ag-silicalite, and CP were examined by the DAPI staining assay. Cells were divided into two groups such as a control group and an experimental group. The control group was without nano formulation and CP treatments. In the experimental group, 1 wt. % Ag/MSS, 2 wt. % Ag/MSS, 4 wt. % Ag/MSS, 6 wt. % Ag/MSS, Ag-silicalite, and CP (25 μg/ml) were added.
Post 48-hour treatment, the control and experimental groups were exposed to ice-cold (4%) paraformaldehyde and further with Triton X-100 in the PBS solution. The cells were stained with DAPI (1.0 μg/ml) for 5 minutes under a dark environment, and the cells were finally washed with the PBS solution and cover slipped. A deoxyribonucleic acid (DNA) staining was examined by using confocal scanning microscope (Zeiss, Germany). The data presented as mean (±) standard deviation (SD) obtained from triplicates and one-way ANOVA followed by Dennett's post hoc test with GraphPad Prism Software (GraphPad Software, USA) for final statistical analysis.

[4] = system: human colorectal carcinoma (HCT-116) cells; assay: MTT cell viability assay on HCT-116 cells; type: cell-based
Experimental: (§2) Two cancer cell lines, namely, HCT-116 and HeLa were considered to study the impact of samples (medicinal nanocomposite) on viability and proliferation of such cell lines. A non-cancer cell line, embryonic kidney cells (HEK-293), was considered as a control cell line. HCT-116, HeLa and HEK-293 are collectively referred to as ‘the cells’ or individually as ‘the cell’ unless otherwise specified. The cells were cultured and maintained in the Dulbecco's Modified Eagle Media (DMEM), L-glutamine (5%), penicillin (1%), streptomycin (1%), Fetal bovine serum (FBS) (10%), and selenium chloride (1%). The cells were grown in 96 well plates in a 5% CO2 incubator (Thermo Fisher Scientific, Inc., Waltham, MA, USA) at 37° C., and 75-80% confluence cells and the cells processed for further assay.
A MTT assay is a colorimetric assay for measuring cell metabolic activity. […]
In control and nano formulation treated cells, MTT (5 mg/ml) was added, and the cells were further incubated in a CO2 incubator for 4 hours. Further, the cell culture media was replaced with dimethyl sulfoxide (DMSO) (1%), and the 96-well plate was further examined under an enzyme-linked immunoassay (ELISA) plate reader (Biotek Instruments, USA) at a wavelength of 570 nm. The percentage of cell viability was calculated for a statistical analysis. […]

[5] = system: human cervical cancer (HeLa) cells; assay: MTT cell viability assay on HeLa cells; type: cell-based; conditions: for effect on HeLa cell viability, growth and proliferation (in words): 48 hours, 5.0 to 50 μg/ml
Experimental: as §2
A MTT assay is a colorimetric assay for measuring cell metabolic activity. The MTT assay is based on the ability of nicotinamide adenine dinucleotide phosphate (NADPH)-dependent cellular oxidoreductase enzymes to reduce the tetrazolium dye MTT to insoluble formazan, which has a purple colour. […] In control group, MSS, 1 wt. % Ag/MSS, 2 wt. % Ag/MSS, 4 wt. % Ag/MSS, 6 wt. % Ag/MSS, Ag-silicalite, and CP were […] and after 48 hours, the cells were incubated in MTT (Sigma-Aldrich, St. Louis, MO, USA) for 4 hours.
In control and nano formulation treated cells, MTT (5 mg/ml) was added, and the cells were further incubated in a CO2 incubator for 4 hours. Further, the cell culture media was replaced with dimethyl sulfoxide (DMSO) (1%), and the 96-well plate was further examined under an enzyme-linked immunoassay (ELISA) plate reader (Biotek Instruments, USA) at a wavelength of 570 nm. The percentage of cell viability was calculated for a statistical analysis. ANOVA were used to analyze the data. All the analysis was run on GraphPad Prism software. P value less than 0.05 was taken as significant difference in results.

Structure (SMILES)	antibacterial activity, MIC/MBC (in words) [1]	antibacterial activity, MIC/MBC (in words) [2]	number of DAPI stained colon cancer cells versus control (in words) [3]	effect on HCT-116 cell viability, growth and proliferation (in words) ([4]; 48 hours, 5.0 to 50 μg/ml)	inhibitory concentration (IC50) ([4]; HCT-116 cells, 48 hours treatment) [µg/mL]	effect on HeLa cell viability, growth and proliferation (in words) [5]	effect on HeLa cell viability, growth and proliferation (in words) ([5]; listed as cisplatin)	inhibitory concentration (IC50) ([5]; HeLa cells, 48 hours treatment) [µg/mL]
O=[N+]([O-])[O-].[Ag+] [AgNO3, Silver nitrate]	showed effectiveness	showed effectiveness	–	–	–	–	–	–
N.N.[Cl][Pt][Cl] [CP, cisplatin]	–	–	significant decrease in the number of colon cancer cells	dose-dependent inhibitory action	13	dose-dependent inhibitory action	significant decrease	13
